Legend:
Format in all cases: cell-based, Pseudomonas putida
[1] = system: 4HBA-tolerant Str, Gen and Rif mutants of P. putida KH146-2; details: Str mutants and Rif mutants tested; in words
Method: (§1) Pseudomonas putida KH146-2 was originally isolated from soil for the capability of growing in the presence of 4-hydroxybenzoate (Chen et al., ((1998) Res Communs Biochem and Cell & Mol Biol 2: 253–274)). HBM medium consists of 50 mM sodium potassium phosphate buffer (pH6.8), 0.1% (NH4)2SO4 and Hutner's base. Hutner's base cotained (per liter) nitrilotriacetic acid, 200 mg; CaCl2.2H2O, 67 mg; (NH4)6Mo7O24.4H2O, 185 μg; MgSO4, 289 mg; EDTA, 2.5 mg; ZnSO4.7H2O, 11 mg; FeSO4.7H2O, 7 mg; MnSO4.H2O, 1.5 mg; CuSO4.5H2O, 390 μg; Co(NO3)2.6H2O, 250 μg, and Na2B4O7.10H2O, 180 μg. LB medium contains 1% tryptone, 0.5% yeast extract, and 1% NaCl (adjusted pH 6.8). LBH medium contains 1% tryptone and 0.5% yeast extract in HBM medium. The bacteria were grown at 30° C. in a shaker at 200 rpm. For tolerance tests, HBM or LBH agar plates containing serially increasing concentrations of an organic chemical were employed. Routinely, 20 to 40 bacterial strains were spot-transplanted with the aid of tooth pick on an agar plate, followed by incubation at 30° C. for 3 days.
Using several strains randomly chosen as representatives of 4HBA-tolerant mutants, we examined the tolerance level to various organic compounds. […] Tolerance levels to other organic compounds were also examined.

[2] = system: P. putida wild-type KH146-2; details: LBH medium, 30° C., 3 days
Method: as §1

[3] = system: P. putida strain no. 15 (Rif mutant); assay: Tolerance test (MIC) on agar plates; details: LBH medium
Method: as §1

[4] = system: P. putida strain no. 17 (Rif mutant); assay: Tolerance test (MIC) on agar plates; details: LBH medium
Method: as §1

[5] = system: P. putida strain no. 9 (Str mutant); assay: Tolerance test (MIC) on agar plates; details: LBH medium
Method: as §1

[6] = system: P. putida strain no. 14 (Rif mutant); assay: Tolerance test (MIC) on agar plates; details: LBH medium
Method: as §1

[7] = system: P. putida strain no. 3 (Str mutant); assay: Tolerance test (MIC) on agar plates; details: LBH medium
Method: as §1

[8] = system: P. putida strain no. 12 (Gen mutant); assay: Tolerance test (MIC) on agar plates; details: LBH medium
Method: as §1

Str and Rif mutants = assay: Organic solvent tolerance, growth in saturated LBH medium; details: LBH medium containing saturated concentrations of m-xylene
KH146-2 = assay: as above; details: LBH medium containing saturated concentrations of m-xylene

O=C(O)c1ccccc1I [2-iodobenzoate]
Tolerance of mutants relative to wild-type [1]: increased tolerance

O=C(O)c1ccc(O)c(Br)c1 [3-bromo-4-hydroxybenzoate]
Tolerance of mutants relative to wild-type [1]: increased tolerance

norvalerate
Tolerance of mutants relative to wild-type [1]: increased tolerance

CC(C)CC(=O)O [isovalerate]
Tolerance of mutants relative to wild-type [1]: increased tolerance

O=C(O)c1cccc(Cl)c1 [3CB, 3-chlorobenzoate]
Tolerance (MIC) [2]: 0.9 ± 0.1%
Tolerance of mutants relative to wild-type [1]: slight or no increase of tolerance
Tolerance (MIC) [3]: 1.3 ± 0.2%
Tolerance (MIC) [4]: 1.2 ± 0.1%
Tolerance (MIC) [5]: 1.0 ± 0.2%
Tolerance (MIC) [6]: 1.1 ± 0.2%
Tolerance (MIC) [7]: 1.1 ± 0.2%
Tolerance (MIC) [8]: 1.1 ± 0.2%

Cc1cccc(C)c1 [m-xylene]
growth (Str and Rif mutants): grew
growth (KH146-2): inhibited almost completely

O=C(O)c1cccc(I)c1 [3-iodobenzoate]
Tolerance of mutants relative to wild-type [1]: increased tolerance

O=C(O)c1ccc(Cl)cc1O [4-chlorosalicylate]
Tolerance of mutants relative to wild-type [1]: increased tolerance

CC(C)C(=O)O [isobutyrate]
Tolerance of mutants relative to wild-type [1]: increased tolerance

Reference: US7070983B2, “Mutant Pseudomonas putida strains and methods of use thereof” (priority 2003, dated 2006)
